In patent publication US20070275954A1 (published 2007):

| Structure (SMILES) | melting point |
| --- | --- |
| CNC1=Nc2ncccc2C(c2ccoc2)=NC1c1cccs1 (stereo not shown) | 110 to 114 °C |
| CNC1=Nc2ncccc2C(c2ccsc2)=NC1c1cccs1 (stereo not shown) | 85 to 88 °C |
| Cn1ccnc1C1=NC(c2cccs2)C(N2CCC2)=Nc2ncccc21 (stereo not shown) | 215 to 217 °C |
| CNC1=Nc2ncccc2C(c2ccc[nH]2)=NC1c1cccs1 (stereo not shown) | 165 to 170 °C |
| c1csc(C2N=C(c3ccsc3)c3cccnc3N=C2N2CCC2)c1 (stereo not shown) | 90 to 95 °C |
| CNC1=Nc2ncccc2C(c2cnc[nH]2)=NC1c1cccs1 (stereo not shown) | 280 to 290 °C |
| c1csc(C2N=C(c3ccsc3)c3cccnc3N=C2NC2CC2)c1 (stereo not shown) | 90 to 96 °C |
| CNC1=Nc2ncccc2C(c2cn[nH]c2)=NC1c1cccs1 (stereo not shown) | 187 to 194 °C |
| c1csc(C2N=C(c3cc[nH]c3)c3cccnc3N=C2N2CCC2)c1 (stereo not shown) | 168 to 172 °C |
| CNC1=Nc2ncccc2C(c2cc[nH]n2)=NC1c1cccs1 (stereo not shown) | 269 to 272 °C |
